Among the data in patent KR20070023630A, “티로신 키나제 억제제로서의 퀴나졸린 유도체” (아스트라제네카 아베, priority 2003, dated 2005) are IC50 values, retold here.

Broadly, the IC50 is the concentration that inhibits the measured activity by half.

This assay relates to erbB2 phosphorylation in MCF7-derived cell line (MCF7 유래의 세포주에서 erbB2의 인산화). In words: Test (c): clone 24 phospho-erbB2 cell assay. The assay is classed as cell-based. To be noted: Homo sapiens, clone 24 cells (MCF7-derived, overexpressing full-length erbB2), read-out: IC50 test (c): inhibition of erbB2 tyrosine kinase protein phosphorylation.
As to `CN(C)CC(=O)N1CCC(Oc2ccc3ncnc(Nc4ccc(OCc5ccccn5)c(Cl)c4)c3c2)CC1` [실시예 8, N-[3-클로로-4-(피리딘-2-일메톡시)페닐]-6-({1-[(디메틸아미노)아세틸]피페리딘-4-일}옥시)퀴나졸린-4-아민], the IC50 was determined as 0.21 µM. The result for `CN(C)CC(=O)N1CCC(Oc2ccc3ncnc(Nc4ccc(OCc5cnccn5)c(Cl)c4)c3c2)CC1` [실시예 9, N-[3-클로로-4-(피라진-2-일메톡시)페닐]-6-({1-[(디메틸아미노)아세틸]피페리딘-4-일}옥시)퀴나졸린-4-아민] reads 0.15 µM. For `CS(=O)(=O)N1CCC(COc2ccc3ncnc(Nc4ccc(OCc5ccccn5)c(Cl)c4)c3c2)C1` (stereo not drawn) [실시예 14, N-[3-클로로-4-(피리딘-2-일메톡시)페닐]-6-{[1-(메틸술포닐)피롤리딘-3-일]메톡시}퀴나졸린-4-아민], the IC50 came to 0.004 µM.
